Like-named read-outs stand apart in the source and are kept apart here.
Legend:
Assay type in all cases: biochemical
Pim2 kinase = Pim2 kinase (Homo sapiens, UniProt Q9P1W9); assay: Pim2 ATP depletion assay; conditions: read-out: IC50 (μM) PIM2;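 note: Luciferase-based luminescent readout of ATP remaining after PIM2 phosphorylates a BAD peptide, final 5 nM enzyme, 4 µM ATP, 10 µM peptide, 2.5% DMSO, run to roughly half ATP consumption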
Pim1 kinase = Pim1 kinase (Homo sapiens, UniProt P11309); assay: Pim1 ATP depletion assay;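 note: Luciferase-luciferin luminescence readout of residual ATP after PIM1 transfers phosphate to a peptide substrate, 40 µM ATP added, reaction run to roughly half ATP consumption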
Pim3 kinase = Pim3 kinase (Homo sapiens, UniProt Q86V86); assay: Pim3 ATP depletion assay; conditions: read-out: IC50 (μM) PIM3
[1] = Pim1 ATP depletion assay, read-out: IC50 (μM) PIM1

Chain of Pim1 kinase (P11309 whole entry): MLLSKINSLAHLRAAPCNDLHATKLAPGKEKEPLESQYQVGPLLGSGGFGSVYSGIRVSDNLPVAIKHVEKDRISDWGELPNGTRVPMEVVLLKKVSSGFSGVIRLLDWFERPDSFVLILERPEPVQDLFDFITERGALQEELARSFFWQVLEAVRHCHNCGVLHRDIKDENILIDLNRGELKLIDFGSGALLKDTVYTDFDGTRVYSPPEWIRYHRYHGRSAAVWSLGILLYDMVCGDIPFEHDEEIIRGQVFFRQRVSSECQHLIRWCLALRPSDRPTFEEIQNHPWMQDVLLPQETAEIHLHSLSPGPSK
Chain of Pim2 kinase (Q9P1W9 whole entry): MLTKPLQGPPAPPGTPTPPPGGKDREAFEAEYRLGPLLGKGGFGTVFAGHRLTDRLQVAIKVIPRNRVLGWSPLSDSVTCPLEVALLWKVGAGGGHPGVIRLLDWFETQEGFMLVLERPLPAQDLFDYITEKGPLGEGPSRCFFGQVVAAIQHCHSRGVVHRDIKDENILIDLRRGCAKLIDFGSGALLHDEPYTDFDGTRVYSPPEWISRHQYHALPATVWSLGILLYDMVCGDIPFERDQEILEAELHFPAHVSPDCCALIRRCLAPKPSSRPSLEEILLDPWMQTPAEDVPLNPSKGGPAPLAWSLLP

| IC50 (Pim2 kinase) | IC50 (Pim1 kinase; [1]) | IC50 (Pim3 kinase) | IC50 (Pim1 kinase) | Compound |
| --- | --- | --- | --- | --- |
| < 1 µM | < 1 µM | < 1 µM | – | NC1CC(C(F)(F)F)CN(c2ccncc2NC(=O)c2nc(-c3ccccc3F)ccc2F)C1 (stereo not drawn) [Example 280, 3-Fluoro-6-(2-fluoro-phenyl)-pyridine-2-carboxylic acid (3-amino-5-trifluoromethyl-3,4,5,6-tetrahydro-2H-[1,4′]bipyridinyl-3′-yl)-amide] |
| < 1 µM | < 1 µM | < 1 µM | – | NC1CC(C(F)(F)F)CN(c2ccncc2NC(=O)c2ccc(F)c(-c3ccccc3F)n2)C1 (stereo not drawn) [Example 281, 5-Fluoro-6-(2-fluoro-phenyl)-pyridine-2-carboxylic acid (3-amino-5-trifluoromethyl-3,4,5,6-tetrahydro-2H-[1,4′]bipyridinyl-3′-yl)-amide] |
| < 1 µM | < 1 µM | < 1 µM | – | Nc1ccc(-c2c(F)cccc2F)nc1C(=O)Nc1cnccc1N1CC(N)CC(C(F)(F)F)C1 (stereo not drawn) [Example 282, 3-Amino-6-(2,6-difluoro-phenyl)-pyridine-2-carboxylic acid (3-amino-5-trifluoromethyl-3,4,5,6-tetrahydro-2H-[1,4′]bi-pyridinyl-3′-yl)-amide] |
| < 1 µM | < 1 µM | < 1 µM | – | CC1CC(N)CN(c2ccncc2NC(=O)c2nc(C3CCCCC3)ccc2N)C1 (stereo not drawn) [Example 283, 3-Amino-6-cyclohexyl-pyridine-2-carboxylic acid (3-amino-5-methyl-3,4,5,6-tetrahydro-2H-[1,4′]bipyridinyl-3′-yl)-amide] |
| < 1 µM | < 1 µM | < 1 µM | – | Nc1ccc(C2CCCCC2)nc1C(=O)Nc1cnccc1N1C[C@@H](N)C[C@@H](F)C1 [Example 284, 3-Amino-6-cyclohexyl-pyridine-2-carboxylic acid (3-amino-5-fluoro-3,4,5,6-tetrahydro-2H-[1,4′]bipyridinyl-3′-yl)-amide] |
| < 1 µM | < 1 µM | < 1 µM | – | CO[C@@H]1C[C@H](N)CN(c2ccncc2NC(=O)c2nc(C3CCCCC3)ccc2N)C1 [Example 285, 3-Amino-6-cyclohexyl-pyridine-2-carboxylic acid (3-amino-5-methoxy-3,4,5,6-tetrahydro-2H-[1,4′]bipyridinyl-3′-yl)-amide] |
| < 1 µM | < 1 µM | < 1 µM | – | CC1CC(N)CN(c2ccncc2NC(=O)c2nc(-c3ccccc3F)ccc2F)C1 (stereo not drawn) [Example 286, 3-Fluoro-6-(2-fluoro-phenyl)-pyridine-2-carboxylic acid (5-amino-3-methyl-3,4,5,6-tetra-hydro-2H-[1,4′]bipyridinyl-3′-yl)-amide] |
| < 1 µM | < 1 µM | < 1 µM | – | CC1CC(N)CN(c2ccncc2NC(=O)c2nc(-c3c(F)cccc3F)ccc2N)C1 (stereo not drawn) [Example 288, 3-Amino-6-(2,6-difluoro-phenyl)-pyridine-2-carboxylic acid (3-amino-5-methyl-3,4,5,6-tetrahydro-2H-[1,4′]bipyridinyl-3′-yl)-amide] |
| < 1 µM | < 1 µM | < 1 µM | – | NC1CC(CO)CN(c2ccncc2NC(=O)c2ccc(F)c(-c3ccccc3F)n2)C1 (stereo not drawn) [Example 289, 5-Fluoro-6-(2-fluoro-phenyl)-pyridine-2-carboxylic acid (5-amino-3-hydroxymethyl-3,4,5,6-tetrahydro-2H-[1,4′]bipyridinyl-3′-yl)-amide] |
| < 1 µM | < 1 µM | < 1 µM | – | CC(C)NC(=O)c1ccc(F)c(-c2ccc(N)c(C(=O)Nc3cnccc3N3CCCC4(CCNC4)C3)n2)c1 (stereo not drawn) [Example 291, 3-Amino-6-(2-fluoro-5-isopropylcarbamoyl-phenyl)-pyridine-2-carboxylic acid [4-(2,7-diaza-spiro[4.5]dec-7-yl)-pyridin-3-yl]-amide] |
| < 1 µM | < 1 µM | < 1 µM | – | Nc1ccc(-c2c(F)cccc2F)nc1C(=O)Nc1cnccc1N1C[C@@H](N)C[C@@H](F)C1 [Example 293, 3-Amino-6-(2,6-difluoro-phenyl)-pyridine-2-carboxylic acid (3-amino-5-fluoro-3,4,5,6-tetrahydro-2H-[1,4′]bipyridinyl-3′-yl)-amide] |
| 1 to 10 µM | < 1 µM | < 1 µM | – | Nc1ccc(-c2c(F)cccc2F)nc1C(=O)Nc1cnccc1N1C[C@@H](N)C[C@H](OC(=O)c2ccccc2)C1 [Example 295, Benzoic acid 5-amino-3′-{[3-amino-6-(2,6-difluoro-phenyl)-pyridine-2-carbonyl]-amino}-3,4,5,6-tetrahydro-2H-[1,4′]bi-pyridinyl-3-yl ester] |
| < 1 µM | < 1 µM | < 1 µM | – | CC(C)NC(=O)c1ccc(F)c(-c2ccc(N)c(C(=O)Nc3cnccc3N3C[C@@H](N)C[C@H](O)C3)n2)c1 [Example 296, 3-Amino-6-(2-fluoro-5-isopropylcarbamoyl-phenyl)-pyridine-2-carboxylic acid (3-amino-5-hydroxy-3,4,5,6-tetra-hydro-2H-[1,4′]bipyridinyl-3′-yl)-amide] |
| < 1 µM | < 1 µM | < 1 µM | – | Nc1ccc(-c2c(F)cccc2F)nc1C(=O)Nc1cnccc1N1C[C@@H](N)C[C@H](O)C1 [Example 297, 3-Amino-6-(2,6-difluoro-phenyl)-pyridine-2-carboxylic acid (3-amino-5-hydroxy-3,4,5,6-tetrahydro-2H-[1,4′]bipyridinyl-3′-yl)-amide] |
| < 1 µM | < 1 µM | < 1 µM | – | COC1CCN(c2ccncc2NC(=O)c2nc(-c3cc(C(=O)NC(C)C)ccc3F)ccc2N)CC1N (stereo not drawn) [Example 299, 3-Amino-6-(2-fluoro-5-isopropylcarbamoyl-phenyl)-pyridine-2-carboxylic acid (3-amino-4-methoxy-3,4,5,6-tetra-hydro-2H-[1,4′]bipyridinyl-3′-yl)-amide] |
| < 1 µM | < 1 µM | < 1 µM | – | COC1CCN(c2ccncc2NC(=O)c2nc(-c3c(F)cccc3F)ccc2N)CC1N (stereo not drawn) [Example 301, 3-Amino-6-(2,6-difluoro-phenyl)-pyridine-2-carboxylic acid (3-amino-4-methoxy-3,4,5,6-tetrahydro-2H-[1,4′]bi-pyridinyl-3′-yl)-amide] |
| < 1 µM | < 1 µM | < 1 µM | – | Nc1ccc(-c2c(F)cccc2F)nc1C(=O)Nc1cnccc1N1CC[C@H]2OC(=O)N[C@H]2C1 [Example 302, 3-Amino-6-(2,6-difluoro-phenyl)-pyridine-2-carboxylic acid [4-(2-oxo-hexahydro-oxazolo[4,5-c]pyridin-5-yl)-pyridin-3-yl]-amide] |
| < 1 µM | < 1 µM | < 1 µM | – | Nc1ccc(-c2c(F)cccc2F)nc1C(=O)Nc1cnccc1N1CC[C@@H]2OC(=O)N[C@@H]2C1 [Example 303, 3-Amino-6-(2,6-difluoro-phenyl)-pyridine-2-carboxylic acid [4-(2-oxo-hexahydro-oxazolo[4,5-c]pyridin-5-yl)-pyridin-3-yl]-amide] |
| < 1 µM | < 1 µM | < 1 µM | – | Cc1ccc(S(=O)(=O)N2CCCCC2)cc1-c1ccc(N)c(C(=O)Nc2cnccc2N2CCC[C@H](N)C2)n1 [Example 318, 3-amino-6-[2-methyl-5-(piperidine-1-sulfonyl)-phenyl]-pyridine-2-carboxylic acid ((S)-3-amino-3,4,5,6-tetrahydro-2H-[1,4′]bi-pyridinyl-3′-yl)-amide] |
| < 1 µM | – | < 1 µM | < 1 µM | Nc1ccc(-c2ccccc2C(F)(F)F)nc1C(=O)Nc1cnccc1N1CCC[C@H](N)C1 [Example 336] |
| < 1 µM | < 1 µM | < 1 µM | – | Cc1ccccc1-c1ccc(N)c(C(=O)Nc2cnccc2N2CCC[C@H](N)C2)n1 [Example 338, 3-amino-6-o-tolyl-pyridine-2-carboxylic acid ((S)-3-amino-3,4,5,6-tetrahydro-2H-[1,4′]bi-pyridinyl-3′-yl)-amide] |
| 10 to 25 µM | 1 to 10 µM | 1 to 10 µM | – | Nc1ncc(-c2cccc(C(=O)N3CCOCC3)c2)nc1C(=O)Nc1ccccc1N1CCNCC1 [Example 398, 3-amino-6-[3-(morpholine-4-carbonyl)-phenyl]-pyrazine-2-carboxylic acid (2-piperazin-1-yl-phenyl)-amide] |
| < 1 µM | < 1 µM | < 1 µM | – | Nc1ccc(-c2cncnc2)nc1C(=O)Nc1cnccc1N1CCC[C@H](N)C1 [Example 407, 3-amino-6-pyrimidin-5-yl-pyridine-2-carboxylic acid ((S)-3-amino-3,4,5,6-tetrahydro-2H-[1,4′]bipyridinyl-3′-yl)-amide] |
| < 1 µM | < 1 µM | < 1 µM | – | Nc1ccc(-c2ccc(F)nc2N)nc1C(=O)Nc1cnccc1N1CCC[C@H](N)C1 [Example 408, 5,2′-diamino-6′-fluoro-[2,3′]bi-pyridinyl-6-carboxylic acid ((S)-3-amino-3,4,5,6-tetrahydro-2H-[1,4′]bipyridinyl-3′-yl)-amide] |
| < 1 µM | < 1 µM | < 1 µM | – | Cc1nc(N)ncc1-c1ccc(N)c(C(=O)Nc2cnccc2N2CCC[C@H](N)C2)n1 [Example 409, 3-amino-6-(2-amino-4-methyl-pyrimidin-5-yl)-pyridine-2-carboxylic acid ((S)-3-amino-3,4,5,6-tetrahydro-2H-[1,4′]bi-pyridinyl-3′-yl)-amide] |
| < 1 µM | < 1 µM | < 1 µM | – | COc1cc(-c2ccc(N)c(C(=O)Nc3cnccc3N3CCC[C@H](N)C3)n2)cnc1N [Example 416, 5,6′-diamino-5′-methoxy-[2,3′]bi-pyridinyl-6-carboxylic acid ((S)-3-amino-3,4,5,6-tetrahydro-2H-[1,4′]bipyridinyl-3′-yl)-amide] |
